From the CheMixHub viscosity set

Test: xn = mol fraction of the nth substance listed

Clc1ccccc1 + Cc1ccccc1
Conditions | viscosity [mPa·s]
303.15 K, 101 kPa, x2 = 0.8959 | 0.5561
303.15 K, 101 kPa, x2 = 0.8995 | 0.5584
303.25 K, 101.33 kPa, x1 = 0.7 | 0.7203
303.35 K, 101.33 kPa, x1 = 0.3 | 0.6272
303.55 K, 101.33 kPa, x1 = 0.1 | 0.5816
303.75 K, 101.33 kPa, x1 = 0.4 | 0.6426
304.15 K, 101.33 kPa, x1 = 0.2 | 0.6008
308.15 K, 101 kPa, x2 = 0.101 | 0.6704
308.15 K, 101 kPa, x2 = 0.2035 | 0.6518
308.15 K, 101 kPa, x2 = 0.3026 | 0.6334
308.15 K, 101 kPa, x2 = 0.4005 | 0.6181
308.15 K, 101 kPa, x2 = 0.5004 | 0.5983
308.15 K, 101 kPa, x2 = 0.6014 | 0.5769
308.15 K, 101 kPa, x2 = 0.7008 | 0.5641
308.15 K, 101 kPa, x2 = 0.8048 | 0.5447
308.15 K, 101 kPa, x2 = 0.8995 | 0.5279
313.05 K, 101.33 kPa, x1 = 0.3 | 0.5636
313.15 K, 101 kPa, x1 = 0.0994 | 0.4872
313.15 K, 101 kPa, x1 = 0.2021 | 0.503
313.15 K, 101 kPa, x1 = 0.2979 | 0.5205
313.15 K, 101 kPa, x1 = 0.3973 | 0.536
313.15 K, 101 kPa, x1 = 0.5013 | 0.5551
313.15 K, 101 kPa, x1 = 0.6023 | 0.5721
313.15 K, 101 kPa, x1 = 0.7024 | 0.5874
313.15 K, 101 kPa, x1 = 0.8007 | 0.6056
313.15 K, 101 kPa, x1 = 0.9047 | 0.6216
313.15 K, 101 kPa, x2 = 0.0961 | 0.6302
313.15 K, 101 kPa, x2 = 0.101 | 0.6317
313.15 K, 101 kPa, x2 = 0.193 | 0.6128
313.15 K, 101 kPa, x2 = 0.2 | 0.597
313.15 K, 101 kPa, x2 = 0.2035 | 0.6152
313.15 K, 101 kPa, x2 = 0.2907 | 0.5947
313.15 K, 101 kPa, x2 = 0.3026 | 0.5974
313.15 K, 101 kPa, x2 = 0.3894 | 0.5789
313.15 K, 101 kPa, x2 = 0.4 | 0.564
313.15 K, 101 kPa, x2 = 0.4005 | 0.5833
313.15 K, 101 kPa, x2 = 0.4889 | 0.5763
313.15 K, 101 kPa, x2 = 0.5004 | 0.5662
313.15 K, 101 kPa, x2 = 0.5893 | 0.5475
313.15 K, 101 kPa, x2 = 0.6 | 0.53
313.15 K, 101 kPa, x2 = 0.6014 | 0.545
313.15 K, 101 kPa, x2 = 0.6906 | 0.5414
313.15 K, 101 kPa, x2 = 0.7008 | 0.5312
313.15 K, 101 kPa, x2 = 0.7928 | 0.5159
313.15 K, 101 kPa, x2 = 0.8 | 0.498
313.15 K, 101 kPa, x2 = 0.8048 | 0.5134
313.15 K, 101 kPa, x2 = 0.8959 | 0.5005
313.15 K, 101 kPa, x2 = 0.8995 | 0.4983
313.25 K, 101.33 kPa, x1 = 0.1 | 0.5257
313.25 K, 101.33 kPa, x1 = 0.4 | 0.5837
313.35 K, 101.33 kPa, x1 = 0.2 | 0.5458
313.65 K, 101.33 kPa, x1 = 0.7 | 0.6385
322.55 K, 101.33 kPa, x1 = 0.3 | 0.5132
322.75 K, 101.33 kPa, x1 = 0.1 | 0.478
322.85 K, 101.33 kPa, x1 = 0.2 | 0.4964
323.15 K, 101 kPa, x2 = 0.0961 | 0.5575
323.15 K, 101 kPa, x2 = 0.193 | 0.5432
323.15 K, 101 kPa, x2 = 0.2907 | 0.531
323.15 K, 101 kPa, x2 = 0.3894 | 0.5111
323.15 K, 101 kPa, x2 = 0.4889 | 0.5008
323.15 K, 101 kPa, x2 = 0.5893 | 0.4829
323.15 K, 101 kPa, x2 = 0.6906 | 0.4715
323.15 K, 101 kPa, x2 = 0.7928 | 0.4539
323.15 K, 101 kPa, x2 = 0.8959 | 0.4396
323.15 K, 101.33 kPa, x1 = 0.4 | 0.5282
